Patent US20230110128A1, “USE OF ANTIBODY DRUG CONJUGATES COMPRISING TUBULIN DISRUPTING AGENTS TO TREAT SOLID TUMOR” (Seagen Inc., priority 2018, published 2023)
Entries after “also recorded” stand apart in the source; their conditions may differ. Non-standard residues stand in square brackets, D forms with d. Residues, ends and D or L forms follow the SMILES beside them. *: point of attachment. Dolaproine = CO[C@@H]([C@@H]1CCCN1)[C@@H](C)C(=O)O; Dil = CC[C@H](C)[C@H](NC)[C@@H](CC(=O)O)OC; X1 = C[C@@H](N*)[C@@H](O)c1ccccc1; NMeV = CN[C@H](C(=O)O)C(C)C

Tests used:
[1] = test system: Calu-1, HT1080 and SK-MES-1 cells co-cultured with macrophages; test: Macrophage costimulation/antigen presentation after co-culture with treated Calu-1, HT1080 and SK-MES-1 cells; assay type: cell-based; settings: normalized to untreated
Description: Additional cell lines [Calu-1 (lung), HT1080 (fibrosarcoma) and SK-MES-1 […]] were tested for levels of antigen presentation after co culture with macrophages as above. Levels of costimulation (as measured by frequency of CD86-expressing macrophages, Calu-1) or antigen-presentation (as measured by frequency of MHCII-expressing macrophages, HT1080 and SK-MES-1) were quantified and normalized to macrophages that were co-cultured with untreated tumor cells. […] Calu-1, HT-1080, and SK-MES-1 cells were treated with an MMAE-containing ADC (anti-p97-MMAE), vincristine, or paclitaxel for 24 hours and analyzed for HMGB1 release by ELISA.

[2] = test system: MCF7 cells co-cultured with macrophages; test: Macrophage antigen presentation after co-culture with treated MCF7 cells; assay type: cell-based; settings: MCF7 treated 24 hours; macrophages harvested 4 days after co-culture
Description: MCF7 […] cells were treated with MMAE, an MMAE-containing ADC (anti-CD71 OKT9-1006), vincristine, and Paclitaxel for 24 hours. Cells were washed and harvested, and subsequently co-cultured with the enriched macrophages prepared above. Macrophages were harvested 4 days after co-culture and assayed for immune activation by flow cytometry. […] Supernatant from the co-culture of macrophages and dying MCF7 cells was harvested 24 hours later and assayed for levels of cytokine and chemokine production by ELISA and normalized to macrophages that were co-cultured with untreated tumor cells.

[3] = test system: PC-3 prostate tumor cells; test: ATP secretion from PC-3 cells; assay type: cell-based
Description: (§1) PC-3 prostate tumor cells were also treated with MMAE, Vincristine, or Paclitaxel. Supernatant was collected after 16 hours of treatment, and analyzed for ATP secretion. […] PC-3 cells were treated for 24 hours with an MMAE-containing ADC (SGN-LIV1A) or MMAE and harvested in RIPA buffer for western blot analysis (FIG. 3C).

MiaPaca2 cells = test: ATP secretion from MiaPaca2 cells; assay type: cell-based; settings: supernatant after 16 hours
Description: MiaPaca2 cells were treated with MMAE, Vincristine, or Paclitaxel. Supernatant was collected after 16 hours of treatment, and analyzed for ATP secretion.

[4] = test system: MiaPaca-CHOP-luciferase cells subcutaneously engrafted; test: Tumoral CHOP luciferase signal in engrafted MiaPaca-CHOP-luciferase tumors; assay type: in vivo, NOD/SCID/gamma-chain deficient mice; settings: intratumorally; MMAE 0.36 mg/kg, vincristine 1.0 mg/kg, Paclitaxel 10 mg/kg
Description: MiaPaca-CHOP-luciferase cells were subcutaneously engrafted into NOD/SCID/gamma-chain deficient mice. Subcutaneous tumors were treated intratumorally with MMAE (0.36 mg/kg), vincristine (1.0 mg/kg), and Paclitaxel (10 mg/kg) and tumoral luciferase signal was monitored over time.

[5] = test system: BxPC3 and HPAFII (pancreas) cells co-cultured with macrophages; test: Macrophage antigen presentation after co-culture with treated pancreas tumor cells; assay type: cell-based; settings: BxPC3 and HPAFII treated 24 hours; macrophages harvested 4 days after co-culture
Description: Macrophages were enriched from PBMCs from 2 healthy donors by adhering PBMCs to cell culture-grade plastic. Non-adherent cells were removed 24 hours later, leaving a population of cells enriched for macrophages.
BxPC3 and HPAFII (pancreas) cells were treated with MMAE, vincristine, and Paclitaxel for 24 hours. Cells were washed and harvested, and subsequently co-cultured with the enriched macrophages prepared above. Macrophages were harvested 4 days after co-culture and assayed for immune activation by flow cytometry. Level of antigen-presentation (as measured by frequency of MHCII-expressing cells) was quantified and normalized to macrophages that were co-cultured with untreated tumor cells.

MCF7 breast cancer cells = test: Western blot analysis of ER stress response in MCF7 cells; assay type: cell-based; settings: 16 hours
Description: MCF7 breast cancer cells were treated with 100 nM MMAE for 16 hours and harvested RIPA buffer for western blot analysis.
MCF7 cells were treated with MMAE or an MMAE-containing ADC (SGN-LIV1A) for 16 hours and harvested in […] for western bot analysis. […] Induction of ICD is also characterized by the secretion of ATP and HMGB1. Extracellular ATP serves as a strong chemotactic signal, promoting immune cell migration to the tumor site. Upon arrival, extracellular HMGB1 signals through various pro-inflammatory receptors (TLR2, TLR4, RAGE) to activate antigen-presenting cells, thereby promoting immune activity within the tumor.

[6] = test system: T-24 tumor cells co-cultured with macrophages; test: Cytokine and chemokine production in macrophage co-culture with treated T-24 cells; assay type: cell-based; settings: T-24 co-culture supernatant after 24 hours, ELISA, normalized to untreated
Description: T-24 (bladder) cells were treated with MMAE or an MMAE-containing ADC (ASG-22ME) for 48 hours and analyzed for ATP secretion. […] T-24 cells were also treated with MMAE, an MMAE-containing ADC (ASG22ME, Enfortumab vedotin), vincristine, and Paclitaxel for 24 hours. Cells were washed and harvested, and subsequently co-cultured with the enriched macrophages as above. Macrophages were harvested 4 days after co-culture and assayed for immune activation by flow cytometry. Level of antigen-presentation (as measured by frequency of MHCII-expressing macrophages) was quantified and normalized to macrophages that were co-cultured with untreated tumor cells. […] Supernatant from the co-culture of macrophages and dying T-24 tumor cells was harvested after 24 hours and assayed for levels of cytokine and chemokine production by ELISA and normalized to macrophages that were co-cultured with untreated tumor cells.

[7] = test system: A2058 and SK-MEL-5 tumor cells co-cultured with macrophages; test: Cytokine and chemokine production in macrophage co-culture with treated A2058 and SK-MEL-5 cells; assay type: cell-based; settings: A2058 and SK-MEL-5 co-culture supernatant 24 hours, ELISA, normalized to untreated
Description: Supernatant from the co-culture of macrophages and dying A2058 and SK-MEL-5 tumor cells was harvested 24 hours later and assayed for levels of cytokine and chemokine production by ELISA and normalized to macrophages that were co-cultured with untreated tumor cells.

[8] = test system: Hep3b, Huh7, and JHH7 cells co-cultured with macrophages; test: Cytokine and chemokine production in macrophage co-culture with treated liver tumor cells; assay type: cell-based; settings: Huh7, JHH7 co-culture supernatant 24 hours, ELISA, normalized to untreated
Description: Liver tumor lines Hep3b, Huh7, and JHH7 cells were treated with MMAE, Tubulysin M, vincristine, and Paclitaxel for 24 hours and analyzed for ATP secretion. […] Cells were washed and harvested, and subsequently co-cultured with enriched macrophages prepared as above. Macrophages were harvested 4 days after co-culture and assayed for immune activation by flow cytometry. Levels of costimulation (as measured by CD86 expression, JHH7) and antigen-presentation (as measured by frequency of MHCII-expressing cells, Hep3b, Huh7, and JHH7) were quantified and normalized to macrophages that were co-cultured with […]. […] Supernatant from the co-culture of macrophages and dying liver tumor cells was harvested 24 hours later and assayed for levels of cytokine and chemokine production by ELISA and normalized to macrophages that were co-cultured with untreated tumor cells.

PC-3 cells = test: Western blot analysis of ER stress in PC-3 cells; assay type: cell-based; settings: 24 hours
Description: as §1

CC[C@H](C)[C@@H]([C@@H](CC(=O)N1CCC[C@H]1[C@H](OC)[C@@H](C)C(=O)N[C@H](C)[C@@H](O)c1ccccc1)OC)N(C)C(=O)[C@@H](NC(=O)[C@@H](NC)C(C)C)C(C)C [MMAE, monomethyl auristatin E] (H-[NMeV]V[Dil][Dolaproine]-X1)
Immune activation (CD86-expressing macrophages, Calu-1; MHCII-expressing macrophages, HT1080 and SK-MES-1) [1]: increase in immune activation in 3/3 tumor cell lines that was more robust than treatment with Paclitaxel
Macrophage antigen presentation (frequency of MHCII-expressing macrophages) [2]: increase in macrophage antigen presentation
Release of ATP ([3]; FIG. 3D): release of ATP
ATP secretion ([3]; supernatant after 16 hours): robust ATP secretion
ATP secretion (MiaPaca2 cells): robust ATP secretion
Severe ER stress in engrafted tumors (tumoral luciferase signal over time) [4]: rapidly elicited severe ER stress
Antigen-presentation (frequency of MHCII-expressing cells) [5]: increase in antigen-presentation in 1/2 tumor cell lines
Severe ER stress (JNK signaling by phosphorylated IRE1, expression of CHOP) (MCF7 breast cancer cells; western blot): elicited by MMAE
ER stress response (phosphorylation of IRE1 and eIF2a, cleavage of full-length ATF6) (MCF7 breast cancer cells; western blot (100 nM MMAE elsewhere in the source)): activated all 3 pathways of the ER stress response
Cytokine and chemokine production [6]: increase of the indicated cytokines and chemokines that was more robust than treatment with Paclitaxel
Cytokine and chemokine production [7]: increase of the indicated cytokines and chemokines that was more robust than treatment with Paclitaxel
Cytokine and chemokine production [8]: increase of the indicated cytokines and chemokines that was more robust than treatment with Paclitaxel
ER stress (phosphorylation of IRE1 and JNK) (PC-3 cells): elicits ER stress (phosphorylation of IRE1 and JNK); also recorded: elicits ER stress (phosphorylation of IRE1 and INK)
